{"source": "patent US20230338473A1", "about": "“AN[…] TARGETING IL-2, IL-9, AND IL-15 SIGNALING FOR THE TREATMENT OF CYTOK[…] AND CYTOKINE STORM ASSOCIATED DISORDERS” (priority 2020, published 2023)", "key": {"[1]": {"system": "pro-inflammatory cytokines IL-6, IFN-γ, TNF-α, and MCP-1", "settings": "mouse, in vivo"}, "IL-2": {"system": "IL-2", "assay": "CTLL-2 proliferation assay (3H-thymidine), IL-2", "format": "cell-based", "settings": "CTLL-2 cells, 50 pM IL-2, BNZ-γ 0.1, 1, 10 µM, 20 hours, 3H-thymidine (FIG. 3B)", "method": "In a similar assay, the murine cell line CTTL2 was used. In this assay the cells were cultured with 0.5 nM of recombinant IL-2 in RPMI 10% fetal Calf Serum. To set up the proliferation assay, cells were washed from the cytokines 3 times. Cells were seeded at 1 × 10(5) cells per well of a 96-well plate with final concentration of 50 pM of IL-2 or IL-15. Various concentration of BNZ-γ peptide (0.1, 1, and 10 µM) was added to each well. Cells were cultured for 20 hours and in the last 4 hours, ^3H-thymidine was added to the plates. Cells were harvested and radioactivity measured to determine cell proliferation levels.\nInhibition of γc-cytokine-induced proliferation of an indicator cell population by antagonist custom derivative peptides is measured by the 3H-thymidine incorporation assay. Briefly, radiolabeled thymidine (1 microCi) is given to 20-50,000 cells undergoing proliferation in the presence of cytokines. The cell-incorporated radioactivity is measured by trapping cell-bound radioactivity to a glass-fiber filter using a conventional harvester machines (Example, Filtermate Universal Harvester from Perkin-Elmer), after which the radioactivity is measured using a b-counter (Example 1450, Trilux microplate scintillation counter)."}, "IL-15": {"system": "IL-15", "assay": "PT-18β proliferation assay (WST-1), IL-15", "format": "cell-based", "settings": "PT-18β cells, 1 nM cytokine, BNZ-γ as 1:20 or 1:60 dilution of HEK293T supernatant, 2 days", "from_the_text": "(§1) For each of the six γc-cytokines, indicator cell lines: NK92, a human NK cell line NK92 available by American Type Culture Collection (ATCC) (catalog # CRL-2407), CTLL-2, a murine CD8 T cells line available from ATCC, and PT-18, a murine mast cell line and its subclone PT-18β, is transfected with human IL-2Rβ gene to make the cells responsive to IL-2 and IL-15 (Tagaya et al., 1996, EMBO J. 15:4928-39), and is used to quantitatively determine the γc-cytokine’s growth-promoting activity (See Current protocols in Immunology from Wiley and Sons for a methodological reference).\n(§2) Once the appropriate doses of the cytokine that yield the 50% and 95% maximum response from the indicator cell line is determined, various concentrations (ranging from 1 pM to 10 µM) of the purified or synthesized custom derivative peptide is added to each well containing the cytokine and indicator cells. The reduction in light absorbance at 450 nm is used as an indicator of inhibition of cytokine-stimulated cellular proliferation. Typically, the cells are stimulated by the cytokines such that the absorbance of the well containing indicator cell line and the cytokine is between 2.0 and 3.0, which is reduced to a range of 0.1 to 0.5 by the addition of inhibitory peptides. […]\n(§3) The growth-responses of the cells were determined 2 days after the introduction of BNZ-γpeptide and the cytokine using the WST-1 assay. […]"}, "IL-9": {"system": "IL-9", "assay": "PT-18β proliferation assay (WST-1), IL-9", "format": "cell-based", "settings": "PT-18β cells, 1 nM cytokine, BNZ-γ as 1:20 or 1:60 dilution of HEK293T supernatant, 2 days", "from_the_text": "as §1, §2, §3"}, "[2]": {"system": "NSG mice transplanted with huPBMCs and infected with LCMV", "settings": "mouse, in vivo"}, "IL-4": {"system": "IL-4", "assay": "PT-18β proliferation assay (WST-1), IL-4", "format": "cell-based", "settings": "PT-18β cells, 1 nM cytokine, BNZ-γ as 1:20 or 1:60 dilution of HEK293T supernatant, 2 days", "from_the_text": "as §1, §2, §3"}, "STAT5": {"system": "STAT5", "assay": "IL-15-mediated tyrosine phosphorylation of STAT5 in PT-18β cells (immunoblot)", "format": "cell-based", "settings": "PT-18β cells stimulated by IL-15, anti-phospho-STAT5 immunoblot", "from_the_text": "In addition to stimulating cellular proliferation, binding of the γc-cytokines to their receptors causes a diverse array of intracellular events. (Rochman et al., 2009, Nat Rev Immunol 9:480-90; Pesu et al., 2005, Immunol Rev 203:127-42). Immediately after the cytokine binds to its receptor, a tyrosine kinase called Jak3 (Janus-kinase 3) is recruited to the receptor at the plasma membrane. This kinase phosphorylates the tyrosine residues of multiple proteins including the γc-subunit, STAT5 (Signal Transducer and Activator of Transcription 5) and subunits of the PI3 (Phosphatidylinositol 3) kinase. Among these, the phosphorylation of STAT5 has been implicated in many studies as being linked to the proliferation of cells initiated by the γc-cytokine (Hennighausen and Robinson, 2008, Genes Dev 22:711-21). In accordance with these published data, whether or not the BNZ-γ peptide inhibits the tyrosine phosphorylation of STAT5 molecule in PT-18β cells stimulated by IL-15 was examined (results shown in FIG. 4).\nPT-18β cells were stimulated by IL-15 in the presence or absence of BNZ-γ peptide. Cytoplasmic proteins were extracted from the cells according to a conventional method (Tagaya et al., 1996, EMBO J 15:4928-39). […]"}, "IL-3": {"system": "IL-3", "sequence (P01586 27-166)": "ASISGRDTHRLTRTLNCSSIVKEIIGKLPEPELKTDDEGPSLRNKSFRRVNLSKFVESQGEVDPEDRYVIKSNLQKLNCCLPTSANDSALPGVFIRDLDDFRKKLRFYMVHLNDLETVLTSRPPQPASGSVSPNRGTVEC", "assay": "PT-18β proliferation assay (WST-1), IL-3 negative control", "format": "cell-based", "settings": "PT-18β cells, 1 nM cytokine, BNZ-γ as 1:20 or 1:60 dilution of HEK293T supernatant, 2 days", "from_the_text": "as §1, §2, §3"}}}
{"substance": "I-K-E-F-L-Q-R-F-I-H-I-V-Q-S-I-I-N-T-S (IKEFLQRFIHIVQSIINTS) [BNZ-γ]", "values": [{"measurement": "pro-inflammatory cytokine plasma levels", "setting": "[1]", "value": "drastically reduced"}, {"measurement": "course of IL-6 plasma level over the measurement period", "setting": "[1]; 2 mg/kg", "value": "clear incremental decreases"}, {"measurement": "course of TNF-α plasma level over the measurement period", "setting": "[1]; 2 mg/kg", "value": "clear incremental decreases"}, {"measurement": "drop in IFN-γ plasma level versus PBS vehicle control", "setting": "[1]; 2 mg/kg", "value": 4.5, "unit": "fold"}, {"measurement": "drop in IL-6 plasma level versus PBS vehicle control", "setting": "[1]; 2 mg/kg", "value": 6, "unit": "fold"}, {"measurement": "drop in MCP-1 plasma level versus PBS vehicle control", "setting": "[1]; 2 mg/kg", "value": 7.5, "unit": "fold"}, {"measurement": "drop in TNF-α plasma level versus PBS vehicle control", "setting": "[1]; 2 mg/kg", "value": 7, "unit": "fold"}, {"measurement": "IL-2 induced cellular proliferation", "setting": "IL-2", "value": "suppresses"}, {"measurement": "growth-promoting activity of IL-15", "setting": "IL-15", "value": "significantly (p<0.01 Student’s T test) reduced"}, {"measurement": "growth-promoting activity of IL-9", "setting": "IL-9", "value": "significantly (p<0.01 Student’s T test) reduced"}, {"measurement": "protection from cytokine storm-induced mortality", "setting": "[2]", "value": 100, "unit": "%"}, {"measurement": "survival over the 5-week study period", "setting": "[2]", "value": "survived the 5-week study period"}, {"measurement": "cellular proliferation stimulated by IL-4", "setting": "IL-4", "value": "not affected"}, {"measurement": "tyrosine phosphorylation of STAT5 induced by IL-15", "setting": "STAT5", "value": "markedly reduced"}, {"measurement": "growth-promoting activity of IL-3 (a non γc-cytokine)", "setting": "IL-3", "value": "not inhibited"}]}
